Data as given in patent US6962931B2, “Self-emulsifying formulations of cholesteryl ester transfer protein inhibitors” (Pfizer Inc., priority 2001, dated 2005).
Converted amounts (≈) assume the structure as drawn. Read-outs that look alike come from different tables or passages of the source.

Experiment: Microsolubility estimate by repeated addition of vehicle
Type: physicochemical
Details: thermodynamic from solid, read-out: Microsolubility
Description: (§1) For CETP inhibitors where quantities were limited, an estimate of solubility was obtained by addition of vehicle to a known quantity of the compound and mixing in an ultrasonicator bath for 90 minutes, followed by overnight equilibration at ambient temperature. Addition of vehicle was repeated until a solution was achieved.
as §1, with “limited or the samples were amorphous solids,” for “limited,”, “achieved. From the total volume of vehicle added to solubilize the CETP inhibitor compound, the solubility value, or so-called microsolubility, was calculated by the equation: Weight of sample (mgA)/vehicle volume (mL)=Microsolubility (mgA/mL)” for “achieved.”

[1] = Cremophor EL, organic solvent or mixture
[2] = Crodamol GTCC/Capmul MCM/Polysorbate 80 (40/40/20), oil or lipid
[3] = Corn, Safflower, Soybean oils, oil or lipid
[4] = PEG 400, organic solvent or mixture

Compound	Solubility [1]	Solubility [2]	Solubility (Olive oil, oil or lipid)	Solubility (Sesame oil, oil or lipid)	Solubility (Capmul MCM, oil or lipid)	Solubility [3]	Solubility (Crodamol GTCC, oil or lipid)	Solubility [4]	Solubility (Miglyol 812, oil or lipid)	Solubility (Safflower oil, oil or lipid)	Solubility (Corn oil/Labrafil (80/20), oil or lipid)	Solubility (Corn oil/Polysorbate 80 (80/20), oil or lipid)	Solubility (Peanut oil, oil or lipid)
CCCOC(=O)N1c2ccc(C(F)(F)F)cc2[C@@H](N(Cc2cc(C(F)(F)F)cc(C(F)(F)F)c2)C(=O)OC)C[C@H]1CC [Compound F, [2R,4S] 4-[(3,5-Bis-trifluoromethyl-benzyl)-methoxycarbonyl-amino]-2-ethyl-6-trifluoromethyl-3,4-dihydro-2H-quinoline-1-carboxylic acid propyl ester]	–	–	303 mg/mL (≈ 493 mM)	–	–	–	–	–	< 100 mg/mL	–	–	–	–
CCOC(=O)N1c2cc(C(F)(F)F)ccc2[C@@H](N(Cc2cc(C(F)(F)F)cc(C(F)(F)F)c2)C(=O)OC)C[C@H]1C [Compound I, [2R,4S] 4-[(3,5-Bis-trifluoromethyl-benzyl)-methoxycarbonyl-amino]-2-methyl-7-trifluoromethyl-3,4-dihydro-2H-quinoline-1-carboxylic acid ethyl ester]	–	> 20 mg/mL	< 20 mg/mL	< 20 mg/mL	> 20 mg/mL	< 20 mg/mL	> 20 mg/mL	< 20 mg/mL	–	–	< 20 mg/mL	> 20 mg/mL	< 20 mg/mL
CCOC(=O)N1c2cc3c(cc2[C@H](N(Cc2cc(C(F)(F)F)cc(C(F)(F)F)c2)C(=O)OC)C[C@@H]1C)CCC3 [Compound J, [2S,4R] 4-[(3,5-Bis-trifluoromethyl-benzyl)-methoxycarbonyl-amino]-2-methyl-2,3,4,6,7,8-hexahydro-cyclopenta[g]quinoline-1-carboxylic acid ethyl ester]	–	> 100 mg/mL	> 100 mg/mL	> 100 mg/mL	> 100 mg/mL	> 100 mg/mL	> 100 mg/mL	50 to 100 mg/mL (≈ 89.5 to 179 mM)	–	–	–	–	> 100 mg/mL
CCOC(=O)N1c2ccc(C(F)(F)F)cc2[C@@H](N(Cc2cc(C(F)(F)F)cc(C(F)(F)F)c2)C(=O)OC)C[C@H]1C [Compound L, [2R,4S] 4-[(3,5-Bis-trifluoromethyl-benzyl)-methoxycarbonyl-amino]-2-methyl-6-trifluoromethyl-3,4-dihydro-2H-quinoline-1-carboxylic acid ethyl ester]	–	–	< 300 mg/mL	–	> 300 mg/mL	–	–	–	> 300 mg/mL	> 300 mg/mL	–	–	–
CCOC(=O)N1c2ccc(C(F)(F)F)cc2[C@@H](N(Cc2cc(C(F)(F)F)cc(C(F)(F)F)c2)C(C)=O)C[C@H]1C [Compound O, [2R,4S] 4-[Acetyl-(3,5-bis-trifluoromethyl-benzyl)-amino]-2-methyl-6-trifluoromethyl-3,4-dihydro-2H-quinoline-1-carboxylic acid ethyl ester]	–	–	< 300 mg/mL	–	> 300 mg/mL	–	–	–	> 300 mg/mL	< 300 mg/mL	–	–	–

Next, values leading:

Solubility [1]	Solubility [2]	Solubility (Olive oil, oil or lipid)	Solubility (Sesame oil, oil or lipid)	Solubility (Capmul MCM, oil or lipid)	Solubility [3]	Solubility (Crodamol GTCC, oil or lipid)	Solubility [4]	Solubility (Miglyol 812, oil or lipid)	Solubility (Safflower oil, oil or lipid)	Solubility (Corn oil/Labrafil (80/20), oil or lipid)	Solubility (Corn oil/Polysorbate 80 (80/20), oil or lipid)	Solubility (Peanut oil, oil or lipid)	Compound
> 300 mg/mL	> 300 mg/mL	> 300 mg/mL	> 300 mg/mL	–	–	–	–	–	–	–	–	–	COC(=O)N(Cc1cc(C(F)(F)F)cc(C(F)(F)F)c1)[C@H]1CC(C2CC2)N(C(=O)OC(C)C)c2ccc(C(F)(F)F)cc21 (stereo in doubt) [Compound G, [2R,4S] 4-[(3,5-Bis-trifluoromethyl-benzyl)-methoxycarbonyl-amino]-2-cyclopropyl-6-trifluoromethyl-3,4-dihydro-2H-quinoline-1-carboxylic acid isopropyl ester]
< 160 mg/mL	–	> 300 mg/mL	–	> 300 mg/mL	> 300 mg/mL	> 300 mg/mL	< 160 mg/mL	–	–	–	–	–	COC(=O)N(Cc1cc(C(F)(F)F)cc(C(F)(F)F)c1)[C@@H]1CC(C2CC2)N(C(=O)OC(C)C)c2ccc(C(F)(F)F)cc21 (stereo in doubt) [Compound H, [2S,4R] 4-[(3,5-Bis-trifluoromethyl-benzyl)-methoxycarbonyl-amino]-2-cyclopropyl-6-trifluoromethyl-3,4-dihydro-2H-quinoline-1-carboxylic acid isopropyl ester]
–	–	< 300 mg/mL	–	> 300 mg/mL	–	–	–	> 300 mg/mL	< 300 mg/mL	–	–	–	CCCOC(=O)N1c2ccc(C(F)(F)F)cc2[C@@H](N(Cc2cc(C(F)(F)F)cc(C(F)(F)F)c2)C(C)=O)CC1C1CC1 (stereo in doubt) [Compound M, [2R,4S] 4-[Acetyl-(3,5-bis-trifluoromethyl-benzyl)-amino]-2-cyclopropyl-6-trifluoromethyl-3,4-dihydro-2H-quinoline-1-carboxylic acid propyl ester]
–	–	> 300 mg/mL	–	> 300 mg/mL	–	–	–	> 300 mg/mL	> 300 mg/mL	–	–	–	CCCOC(=O)N1c2ccc(C(F)(F)F)cc2[C@@H](N(C=O)Cc2cc(C(F)(F)F)cc(C(F)(F)F)c2)CC1C1CC1 (stereo in doubt) [Compound N, [2R,4S] 4-[(3,5-Bis-trifluoromethyl-benzyl)-formyl-amino]-2-cyclopropyl-6-trifluoromethyl-3,4-dihydro-2H-quinoline-1-carboxylic acid propyl ester]
–	–	> 300 mg/mL	–	> 300 mg/mL	–	–	–	> 300 mg/mL	< 300 mg/mL	–	–	–	CCOC(=O)N1c2ccc(C(F)(F)F)cc2[C@@H](N(C=O)Cc2cc(C(F)(F)F)cc(C(F)(F)F)c2)C[C@H]1CC [Compound P, [2R,4S] 4-[(3,5-Bis-trifluoromethyl-benzyl)-formyl-amino]-2-ethyl-6-trifluoromethyl-3,4-dihydro-2H-quinoline-1-carboxylic acid ethyl ester]
–	–	< 300 mg/mL	–	> 300 mg/mL	–	–	–	> 300 mg/mL	< 300 mg/mL	–	–	–	CCOC(=O)N1c2ccc(C(F)(F)F)cc2[C@@H](N(C=O)Cc2cc(C(F)(F)F)cc(C(F)(F)F)c2)C[C@H]1C [Compound Q, [2R,4S] 4-[(3,5-Bis-trifluoromethyl-benzyl)-formyl-amino]-2-methyl-6-trifluoromethyl-3,4-dihydro-2H-quinoline-1-carboxylic acid ethyl ester]
